This passage reports EC50 results from ChEMBL document CHEMBL1158593, “Structure-activity relationships in human toll-like receptor 7-active imidazoquinoline analogues” (J Med Chem, 2010).

For orientation: EC50 means the concentration giving half of the maximal effect. High values mean lower potency in that assay, low ones higher potency in that assay.

This assay addresses T1, Toll-like receptor 7 (Homo sapiens, UniProt Q9NYK1).
T1 sequence (Q9NYK1 whole entry): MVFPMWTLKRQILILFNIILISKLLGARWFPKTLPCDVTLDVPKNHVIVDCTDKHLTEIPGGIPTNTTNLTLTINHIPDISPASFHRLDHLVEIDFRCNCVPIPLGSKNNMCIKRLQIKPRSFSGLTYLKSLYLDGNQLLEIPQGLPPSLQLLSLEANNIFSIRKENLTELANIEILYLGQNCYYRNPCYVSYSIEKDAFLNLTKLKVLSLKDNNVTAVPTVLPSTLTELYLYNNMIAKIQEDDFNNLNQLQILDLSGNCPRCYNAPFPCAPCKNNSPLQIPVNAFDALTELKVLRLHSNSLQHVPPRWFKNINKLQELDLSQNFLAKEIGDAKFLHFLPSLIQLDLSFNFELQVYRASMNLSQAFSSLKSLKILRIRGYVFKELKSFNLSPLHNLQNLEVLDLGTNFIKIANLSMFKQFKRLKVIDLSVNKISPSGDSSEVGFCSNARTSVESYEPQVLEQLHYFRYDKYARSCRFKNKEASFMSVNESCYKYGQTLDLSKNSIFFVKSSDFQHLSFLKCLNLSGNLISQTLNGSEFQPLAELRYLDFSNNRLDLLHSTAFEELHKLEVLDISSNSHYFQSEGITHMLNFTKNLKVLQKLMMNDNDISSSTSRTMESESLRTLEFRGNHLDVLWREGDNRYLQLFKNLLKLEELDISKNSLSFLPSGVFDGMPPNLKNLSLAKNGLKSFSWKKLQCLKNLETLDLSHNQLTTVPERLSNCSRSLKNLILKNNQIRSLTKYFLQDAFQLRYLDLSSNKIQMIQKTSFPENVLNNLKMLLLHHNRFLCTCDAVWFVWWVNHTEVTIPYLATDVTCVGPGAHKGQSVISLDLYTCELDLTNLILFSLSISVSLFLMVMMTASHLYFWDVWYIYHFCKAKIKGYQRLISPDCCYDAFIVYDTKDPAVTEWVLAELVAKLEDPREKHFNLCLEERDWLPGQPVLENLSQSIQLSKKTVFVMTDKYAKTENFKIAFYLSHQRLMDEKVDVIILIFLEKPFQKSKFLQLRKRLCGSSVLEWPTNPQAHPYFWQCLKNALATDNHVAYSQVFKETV
Description: Agonist activity at human TLR7 expressed in NF-kappaB-stimulated HEK293 cells assessed as induction of secreted alkaline phosphatase expression by reporter gene assay
As for `CCCCc1nc2c(NN)nc3ccccc3c2n1Cc1ccccc1`, the EC50 was found to be 873 nM. `CCN(CC)Cc1nc2c(N)nc3ccccc3c2n1CC(C)(C)O` gave an EC50 of 7710 nM.

In the case of `CCCCCCCc1nc2c(N)nc3ccccc3c2n1Cc1ccccc1`, the EC50 is 822 nM.

As to `CCN(CCC#N)Cc1nc2c(N)nc3ccccc3c2n1CC(C)(C)O`, it took 8390 nM to reach a half-maximal effect (EC50). `CCCCc1nc2c(N)nc3ccccc3c2n1Cc1ccccc1` had an EC50 of 59.1 nM. Take `C#CCCc1nc2c(N)nc3ccccc3c2n1Cc1ccccc1`: it took 209 nM to reach a half-maximal effect (EC50).

With `CCNCc1nc2c(N)nc3ccccc3c2n1Cc1ccccc1`, the EC50 was determined as 385 nM.

Compound `CCCCCCc1nc2c(N)nc3ccccc3c2n1Cc1ccccc1` returned an EC50 of 479 nM.

For the compound `CCc1nc2c(N)nc3ccccc3c2n1Cc1ccccc1`, the EC50 was 472 nM. With `CCCCCc1nc2c(N)nc3ccccc3c2n1Cc1ccccc1`, it took 91.5 nM to reach a half-maximal effect (EC50). In turn, `Cc1nc2c(N)nc3ccccc3c2n1Cc1ccccc1` showed a concentration for a half-maximal effect (EC50) of 955 nM. `CCCCCCCCCc1nc2c(N)nc3ccccc3c2n1Cc1ccccc1` yielded an EC50 of 3350 nM. In turn, `C=CCCc1nc2c(N)nc3ccccc3c2n1Cc1ccccc1` registered an EC50 of 262 nM.

With `CCCCc1nc2c(NO)nc3ccccc3c2n1Cc1ccccc1`, a half-maximal response (EC50) required 723 nM. `CC(C)Cn1cnc2c(N)nc3ccccc3c21` [IMIQUIMOD] came in with an EC50 of 2120 nM. Compound `CCCc1nc2c(N)nc3ccccc3c2n1Cc1ccccc1` came in with an EC50 of 647 nM.
